Test results as given in patent publication EP4606376A1 (ShanghaiTech University, priority 2022, dated 2024).

Key:
[1] = target: TMPRSS2 (Homo sapiens, UniProt O15393); experiment: In vitro enzyme activity inhibition assay (TMPRSS2, substrate Boc-Gln-Ala-Arg-AMC); details: cross-validation; FIG. 2B
Protocol: (§1) Columns 15 to 20 were added with an equivalent volume of DMSO as a positive control group, and columns 18 to 20 were added with an equivalent volume of buffer as a negative control group. […] The 384-well plate was placed in a microplate reader for detection, and the slope of fluorescence intensity increase in the first 2 minutes of the enzymatic reaction was taken as the activity of the protein for subsequent calculation.

[2] = tested on: SARS-CoV-2 Delta; experiment: microbe, parasite or virus in culture; assay type: cell-based; details: Severe acute respiratory syndrome coronavirus 2, 24 h
[3] = target: Cathepsin L (Homo sapiens, UniProt P07711); experiment: In vitro enzyme activity inhibition assay (Cathepsin L, substrate Cbz-Phe-Arg-AMC); assay type: biochemical; details: cross-validation; FIG. 2A
Sequence of Cathepsin L (P07711 114-333): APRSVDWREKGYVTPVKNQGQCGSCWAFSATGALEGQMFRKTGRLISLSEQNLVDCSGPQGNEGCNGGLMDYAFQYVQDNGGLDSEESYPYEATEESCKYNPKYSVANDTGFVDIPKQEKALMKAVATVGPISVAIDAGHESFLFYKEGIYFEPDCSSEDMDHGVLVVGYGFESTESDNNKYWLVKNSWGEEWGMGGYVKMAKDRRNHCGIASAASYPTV
Protocol: as §1

Sequence of TMPRSS2 (O15393 whole entry): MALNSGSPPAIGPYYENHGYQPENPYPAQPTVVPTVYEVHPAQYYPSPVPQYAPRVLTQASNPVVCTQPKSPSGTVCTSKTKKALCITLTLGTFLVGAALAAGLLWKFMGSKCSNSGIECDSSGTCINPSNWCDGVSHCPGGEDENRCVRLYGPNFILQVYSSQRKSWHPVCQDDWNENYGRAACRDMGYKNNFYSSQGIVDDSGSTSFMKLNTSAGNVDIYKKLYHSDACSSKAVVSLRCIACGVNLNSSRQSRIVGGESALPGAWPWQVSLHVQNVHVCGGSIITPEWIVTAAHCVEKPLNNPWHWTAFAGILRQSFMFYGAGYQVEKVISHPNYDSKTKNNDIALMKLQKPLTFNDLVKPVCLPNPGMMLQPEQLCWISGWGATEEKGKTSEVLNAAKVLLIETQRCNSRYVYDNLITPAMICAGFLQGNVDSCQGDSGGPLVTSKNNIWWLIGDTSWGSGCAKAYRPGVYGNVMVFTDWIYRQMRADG

Row | Compound | inhibitory activity against TMPRSS2 [1] | EC50 ([2]; […], combination at a molar ratio of 1:1, FIG. 3) | inhibitory activity against Cathepsin L [3] | EC50 [2]
1 | CN1CCN(C(=O)N[C@@H](Cc2ccccc2)C(=O)N[C@H](/C=C/S(=O)(=O)c2ccccc2)CCc2ccccc2)CC1 [K777] | no inhibitory activity | 0.66 µM |  | 
2 | N=C(N)Nc1ccc(C(=O)Oc2ccc3cc(C(=N)N)ccc3c2)cc1 [Nafamostat] |  |  | no inhibitory activity | 0.02 µM
